# Paper PMC8753592, “Long-acting capsid inhibitor protects macaques from repeat SHIV challenges” (Nature, 2021)
# Several values for one entry are separate records, joined by “and”; a condition that tells them apart may be missing. Equal entries are not always repeated. Where two headings read alike, the source gives them in different places.
# Columns and labels:
# SHIV-SF162P3 = experiment: microbe, parasite or virus in culture; format: cell-based, SHIV (in rhesus macaque, Macaca mulatta, PBMCs)
# Method: Freshly isolated PBMCs from three male rhesus macaque (M. mulatta) donors of Indian origin (HumanCells Biosciences) were cultured in RPMI-1640 cell culture medium (Life Technologies) supplemented with 10% heat-inactivated FBS (Hyclone), 2 mM glutamine and 100 U ml^−1 penicillin plus 100 μg ml^−1 streptomycin (complete RPMI). Before their use in the antiviral assays, rhesus PBMCs from three independent donors were pooled and activated at a density of 3 × 10^6 cells per ml for 72 h at 37 °C by the addition of 1 μg ml^–1 phytohemagglutinin (PHA, Sigma-Aldrich) and 50 U ml^−1 recombinant human interleukin-2 (IL-2) (Roche Diagnostics).
# PHA/IL-2-stimulated rhesus PBMCs were infected in bulk culture with SHIV-SF162P3 at a concentration of 130 pg of p27 equivalent per million PBMCs. The cells were maintained in suspension by gently rocking the cultures mixed with virus inoculum for 3 h at 37 °C. The cells were then pelleted by centrifugation at 500g for 5 min, washed twice with complete RPMI to remove any unadsorbed virus and seeded into 96-well plates at a cell density of 2 × 10^5 cells per well in 100 μl. […] The cultures were incubated in a 5% CO2 incubator at 37 °C for 7 days. Cell-free supernatants derived from the PBMC cultures were harvested 7 days after infection, the amount of SHIV present was quantified using an SIV p27 antigen-capture ELISA assay (5436, Advanced Bioscience Laboratories) performed according to the manufacturer’s protocol, and the data were acquired using SoftMax Pro 6.3.1 software (Molecular Devices).
# CA mutant M66I = details: ref Link et al, Nature, 2020;[16]; cited from earlier work
# [1] = ref Link et al, Nature, 2020;[16], cited from earlier work
# CA mutant L56I = details: ref Link et al, Nature, 2020;[16]; cited from earlier work
# [2] = ref Link et al, Nature, 2020;[16]; cited from earlier work
# HIV-1 = details: cited from earlier work; for average LEN plasma concentration as multiple of human paEC95: 9 days after dose administration
# CA mutant N74D = details: ref Link et al, Nature, 2020;[16]; cited from earlier work
# CA hexamer = details: ref Link et al, Nature, 2020;[16]; read-out: Binding Affinity (KD), CA hexamer; cited from earlier work
# [3] = in vivo, sc; cited from earlier work
# HIV-1 isolates = details: ref Link et al, Nature, 2020;[16]; read-out: EC50, human PBMCs, HIV-1 isolates; cited from earlier work
# [4] = target: CA precursor (Gag polyprotein); details: ref Link et al, Nature, 2020;[16]; read-out: Binding Affinity (KD), CA precursor (Gag polyprotein); cited from earlier work
# HIV capsid = details: ref Link et al, Nature, 2020;[16]; cited from earlier work
# CA pentamer = details: ref Link et al, Nature, 2020;[16]; read-out: Binding Affinity (KD), CA pentamer; cited from earlier work
# CA monomer = details: ref Link et al, Nature, 2020;[16]; read-out: Binding Affinity (KD), CA monomer; cited from earlier work
# [5] = ref Link et al, Nature, 2020;[16]; cited from earlier work; remark: listed apart in the source
# [6] = single experiments n1–n7, SIV p27 ELISA day 7, read-out: SHIV162P3-rhPBMC-EC50, individual experiments
compound,measurement,setting,value
"O=C(NCc1c(F)cc(F)cc1F)c1cn2c(c(O)c1=O)C(=O)N1[C@H]3CC[C@H](C3)O[C@@H]1C2 [BIC, reference compound]",EC50,"SHIV-SF162P3; mean of 7 assays, SIV p27 ELISA day 7 post-infection, read-out: EC50, rhesus PBMCs, SHIV-SF162P3",1.34 nM
same,EC50,SHIV-SF162P3; [6],0.78 nM and 0.9 nM and 1.77 nM and 1.85 nM and 0.55 nM and 1.25 nM and 2.26 nM
"CC(C)(C#Cc1ccc(-c2ccc(Cl)c3c(NS(C)(=O)=O)nn(CC(F)(F)F)c23)c([C@H](Cc2cc(F)cc(F)c2)NC(=O)Cn2nc(C(F)(F)F)c3c2C(F)(F)[C@@H]2C[C@H]32)n1)S(C)(=O)=O [LEN, Lenacapavir, reference compound]",EC50,"SHIV-SF162P3; Simian immunodeficiency virus, PBMC, in Macaca mulatta, 168 h, read-out: EC50, rhesus PBMCs, SHIV-SF162P3, mean of 7 assays, SIV p27 ELISA day 7 post-infection",0.39 nM
same,EC50,"SHIV-SF162P3; read-out: SHIV162P3-rhPBMC-EC50, individual experiments, single experiments n1–n7, SIV p27 ELISA day 7",0.37 nM and 0.26 nM and 0.49 nM and 0.27 nM and 0.69 nM and 0.43 nM
same,EC50,SHIV-SF162P3; [6],0.23 nM
same,"In vitro fold-resistance (CA mutant/wild-type), M66I",CA mutant M66I,">3,200"
same,Kinetic solubility at pH 2.0,[1]; pH 2.0,"<1, <1 μM"
same,Kinetic solubility at pH 7.4,[1]; pH 7.4,"<1, <1 μM"
same,"In vitro fold-resistance (CA mutant/wild-type), L56I",CA mutant L56I,239
same,"T1/2, human cryopreserved hepatocytes",[2],202 h
same,average LEN plasma concentration as multiple of human paEC95,HIV-1; 20 mg dose,0.7 times the human paEC95
same,average LEN plasma concentration as multiple of human paEC95,HIV-1; 50 mg dose,1.1 times the human paEC95
same,participants with capsid mutation Q67H detected,"HIV-1; long-acting LEN monotherapy, phase 1b",2 of 29
same,maximum decline in HIV-1 RNA,"HIV-1; long-acting formulation, after 9 days of monotherapy",2.3 log10
same,"In vitro fold-resistance (CA mutant/wild-type), N74D",CA mutant N74D,22
same,Kd,CA hexamer,0.24 nM
same,duration of mean exposure of more than six times human paEC95,[3],at least 6 months
same,EC50,HIV-1 isolates,0.05 nM
same,Kd,[4],1.1 nM
same,Inhibits nuclear import (early-stage),HIV capsid,Yes
same,Inhibits proper capsid assembly (late-stage),HIV capsid,Yes
same,Inhibits virus production (late-stage),HIV capsid,Yes
same,Kd,CA pentamer,0.22 nM
same,Kd,CA monomer,2.5 nM
same,"Predicted Hepatic Clearance, rate, primary human hepatocytes",[5],0.17 mL/min/kg
